Experimental data: PMC7880690, “Chemical genetics and proteome-wide site mapping reveal cysteine MARylation by PARP-7 on immune-relevant protein targets” (eLife, 2021)

Experiments:
[1] = target: T1, PARP11FL (Homo sapiens, UniProt Q9NR21); test: ADP-ribosylation plate assay, PARP11FL
T1 sequence (Q9NR21 1-338): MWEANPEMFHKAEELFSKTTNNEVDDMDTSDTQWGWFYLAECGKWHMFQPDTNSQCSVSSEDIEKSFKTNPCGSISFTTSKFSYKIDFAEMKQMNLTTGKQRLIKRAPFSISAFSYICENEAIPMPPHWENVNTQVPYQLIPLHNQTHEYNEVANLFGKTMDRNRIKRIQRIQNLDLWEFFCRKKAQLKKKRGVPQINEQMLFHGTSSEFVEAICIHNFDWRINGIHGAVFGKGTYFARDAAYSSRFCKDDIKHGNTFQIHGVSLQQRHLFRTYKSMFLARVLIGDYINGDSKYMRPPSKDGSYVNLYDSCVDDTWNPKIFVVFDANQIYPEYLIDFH

[2] = target: T2, PARP-7 (Homo sapiens, UniProt Q7Z3E1)
T2 sequence (Q7Z3E1 1-657): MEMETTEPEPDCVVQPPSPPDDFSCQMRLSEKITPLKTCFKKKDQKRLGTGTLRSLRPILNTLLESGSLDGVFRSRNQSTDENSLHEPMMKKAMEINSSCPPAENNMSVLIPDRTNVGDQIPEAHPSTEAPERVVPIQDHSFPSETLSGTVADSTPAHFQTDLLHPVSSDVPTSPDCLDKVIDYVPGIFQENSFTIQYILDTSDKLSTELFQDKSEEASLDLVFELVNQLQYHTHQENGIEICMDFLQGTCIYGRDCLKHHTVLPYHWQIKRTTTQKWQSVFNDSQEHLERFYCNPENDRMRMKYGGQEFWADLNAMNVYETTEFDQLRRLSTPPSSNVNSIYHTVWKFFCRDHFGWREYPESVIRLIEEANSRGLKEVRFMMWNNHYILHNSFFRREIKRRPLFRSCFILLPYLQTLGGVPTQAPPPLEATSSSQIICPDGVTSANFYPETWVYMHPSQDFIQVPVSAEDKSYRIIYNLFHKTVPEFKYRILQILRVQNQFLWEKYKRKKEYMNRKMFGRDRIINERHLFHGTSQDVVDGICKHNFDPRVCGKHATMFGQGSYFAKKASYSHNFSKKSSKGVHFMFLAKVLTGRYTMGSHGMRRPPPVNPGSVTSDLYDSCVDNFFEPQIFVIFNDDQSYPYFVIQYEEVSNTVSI

[3] = target: T3, PARP16FL (Homo sapiens, UniProt Q8N5Y8); test: ADP-ribosylation plate assay, PARP16FL
T3 sequence (Q8N5Y8 1-322): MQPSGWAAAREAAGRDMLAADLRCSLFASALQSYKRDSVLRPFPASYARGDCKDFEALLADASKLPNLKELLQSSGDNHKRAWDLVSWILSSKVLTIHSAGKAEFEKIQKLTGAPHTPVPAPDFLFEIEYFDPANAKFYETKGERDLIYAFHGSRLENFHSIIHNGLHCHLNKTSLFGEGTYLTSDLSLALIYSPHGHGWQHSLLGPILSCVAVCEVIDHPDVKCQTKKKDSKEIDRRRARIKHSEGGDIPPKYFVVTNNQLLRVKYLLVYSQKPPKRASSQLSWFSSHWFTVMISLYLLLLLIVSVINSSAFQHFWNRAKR

[4] = target: T4, PARP14wwe-cat. (Homo sapiens, UniProt Q460N5); test: ADP-ribosylation plate assay, PARP14wwe-cat.
T4 sequence (Q460N5 1523-1801 limits assumed): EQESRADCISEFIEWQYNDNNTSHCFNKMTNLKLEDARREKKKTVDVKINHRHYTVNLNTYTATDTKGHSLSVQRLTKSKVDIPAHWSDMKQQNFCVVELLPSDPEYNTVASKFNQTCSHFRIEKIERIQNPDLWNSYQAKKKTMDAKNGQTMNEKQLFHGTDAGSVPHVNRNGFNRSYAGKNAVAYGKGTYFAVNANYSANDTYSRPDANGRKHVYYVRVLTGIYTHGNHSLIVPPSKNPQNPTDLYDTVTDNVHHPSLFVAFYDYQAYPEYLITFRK

[5] = target: PARP2FL (Homo sapiens, UniProt Q9UGN5); test: ADP-ribosylation plate assay, PARP2FL
[6] = target: T5, GFP-PARP-7 (Homo sapiens, UniProt Q7Z3E1); test: Protein levels of ectopically expressed GFP-PARP-7 in HEK 293 T cell time course; conditions: HEK 293 T cell time course, 1 μM
T5 sequence (Q7Z3E1 1-657): T2 sequence (Q7Z3E1 1-657)

PARP2FL, sequence (Q9UGN5 whole entry): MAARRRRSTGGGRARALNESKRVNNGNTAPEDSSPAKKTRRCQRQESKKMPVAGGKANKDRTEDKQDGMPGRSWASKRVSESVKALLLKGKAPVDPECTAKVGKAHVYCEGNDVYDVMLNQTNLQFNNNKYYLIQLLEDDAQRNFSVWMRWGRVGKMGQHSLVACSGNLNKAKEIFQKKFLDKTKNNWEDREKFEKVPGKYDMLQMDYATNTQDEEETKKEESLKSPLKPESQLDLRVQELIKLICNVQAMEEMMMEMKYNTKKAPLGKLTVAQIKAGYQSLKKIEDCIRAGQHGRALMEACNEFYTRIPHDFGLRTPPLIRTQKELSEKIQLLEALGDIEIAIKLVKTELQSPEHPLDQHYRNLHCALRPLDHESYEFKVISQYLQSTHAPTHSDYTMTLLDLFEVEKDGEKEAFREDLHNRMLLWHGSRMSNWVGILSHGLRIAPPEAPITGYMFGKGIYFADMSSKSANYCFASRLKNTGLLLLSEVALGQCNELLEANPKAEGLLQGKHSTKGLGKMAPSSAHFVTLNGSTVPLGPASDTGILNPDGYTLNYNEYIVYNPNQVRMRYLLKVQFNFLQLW

Compound: N#Cc1ccc(N2CCN(C(=O)c3cc(Cc4n[nH]c(=O)c5ccccc45)ccc3F)CC2)nc1 [Phthal01, 6-(4-(2-fluoro-5-((4-oxo-3,4-dihydrophthalazin-1-yl)methyl)benzoyl)piperazin-1-yl)nicotinonitrile]
- IC50 [1]: 460 ± 20 nM
- EC50 [2]: ~60 nM
- IC50 [3]: 4300 ± 1000 nM
- IC50 [4]: > 10000 nM
- IC50 [5]: 28 nM
- protein levels of ectopically expressed GFP-PARP-7 [6]: increased
